Assay results taken from patent US7521432B2, “Compositions and methods for identifying agents which regulate chromosomal stability, gene activation and aging” (priority 2000, dated 2009).

Target: HST2 (Saccharomyces cerevisiae, UniProt P53686)
Assay: Rapid-reaction single turnover quench-flow analysis
Format: biochemical, yeast
Details: HST2, excess NAD^+, sub-stoichiometric [^3H]-AcLys14 H3, 22±3° C., pH 7.5, single exponential fit
Description: FIGS. 5A-5C are a series of graphs showing that acetate is not a primary product of HST2-catalyzed histone/protein deacetylation. H3 peptide was stoichiometrically acetylated on Lys-14 by the histone acetyltransferase P/CAF and using [^3H]-AcCoA. Monoacetylated [^3H]-AcLys-14 H3 peptide was then purified by HPLC (FIG. 5A) and utilized as a substrate in the HST2 deacetylation reactions (FIG. 5B). Upon complete consumption of [^3H]-AcLys-14 H3 by HST2, all of the original [^3H] from H3 peptide was converted to a labeled product that eluted much later than authentic acetate. Conditions: 375 nM HST2, 175 μM NAD^+, 5 μM [^3H]-Lys14 AcH3, 1 mM DTT, for 1 min at 37° C. prior to quenching with TFA to a final concentration of 1%. FIG. 5C: Single turnover rapid quench-flow analysis. […] Quantification of [^3H]-AcLys14 H3 peptide (diamonds) and the [^3H]-acetate-adduct (circles) was accomplished by liquid scintillation counting of these species separated using reverse phase HPLC. […]
P/CAF [^3H]-monoacetylation of H3 peptide. […] Every mass spectrum was recorded as the sum of 20 consecutive spectra, each produced by a single pulse of photons. […] The amount of [^3H]-AcLys14 H3 peptide and [^3H]-O-acetyl ADP ribose was determined by liquid scintillation counting of these species separated on reverse phase HPLC. […]

Sequence of HST2 (P53686 whole entry): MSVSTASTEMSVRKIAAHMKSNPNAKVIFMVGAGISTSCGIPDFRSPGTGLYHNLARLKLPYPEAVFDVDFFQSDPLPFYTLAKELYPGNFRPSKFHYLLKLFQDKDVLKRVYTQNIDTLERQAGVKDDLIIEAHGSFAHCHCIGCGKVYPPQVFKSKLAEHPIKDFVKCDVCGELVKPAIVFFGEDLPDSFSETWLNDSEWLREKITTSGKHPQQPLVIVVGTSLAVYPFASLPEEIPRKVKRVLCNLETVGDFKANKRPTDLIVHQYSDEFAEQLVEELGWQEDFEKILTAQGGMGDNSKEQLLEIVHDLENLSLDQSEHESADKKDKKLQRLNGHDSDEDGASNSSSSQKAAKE

Substance: O-acetyl-ADP ribose
- rate constant of acetate-adduct formation: 2.3 ± 0.2 s⁻¹
